Target: T1, SIRT1 (Homo sapiens, UniProt Q96EB6)
T1 sequence (Q96EB6 1-747): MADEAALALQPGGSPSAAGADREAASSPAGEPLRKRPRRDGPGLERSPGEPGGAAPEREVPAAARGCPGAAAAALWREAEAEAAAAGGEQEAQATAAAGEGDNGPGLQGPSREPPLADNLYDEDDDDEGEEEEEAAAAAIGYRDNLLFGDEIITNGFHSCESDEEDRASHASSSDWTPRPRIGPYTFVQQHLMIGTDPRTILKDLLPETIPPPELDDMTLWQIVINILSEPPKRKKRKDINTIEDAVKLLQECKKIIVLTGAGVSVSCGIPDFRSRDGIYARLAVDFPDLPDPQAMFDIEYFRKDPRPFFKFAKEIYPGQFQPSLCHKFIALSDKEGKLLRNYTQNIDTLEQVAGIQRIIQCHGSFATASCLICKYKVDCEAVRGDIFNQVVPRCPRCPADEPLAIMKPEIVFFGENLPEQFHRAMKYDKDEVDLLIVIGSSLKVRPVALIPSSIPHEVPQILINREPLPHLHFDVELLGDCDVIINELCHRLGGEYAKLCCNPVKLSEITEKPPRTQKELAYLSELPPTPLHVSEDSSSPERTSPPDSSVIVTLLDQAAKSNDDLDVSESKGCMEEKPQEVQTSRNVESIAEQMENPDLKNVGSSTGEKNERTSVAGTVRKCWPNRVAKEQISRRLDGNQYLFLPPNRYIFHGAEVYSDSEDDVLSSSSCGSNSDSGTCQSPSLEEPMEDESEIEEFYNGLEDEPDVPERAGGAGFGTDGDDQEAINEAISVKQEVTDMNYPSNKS
Assay: Trp mass spectrometry assay of SIRT1 activity (EC1.5, percent maximum activation)
Assay type: biochemical
Settings: Trp mass spectrometry assay; for TRP Activity (EC1.5): EC1.5 = concentration giving 150% activation of SIRT1; for TRP MAX RESP (percent maximum fold activation): percent maximum activation of SIRT1
Procedure, shortened: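 Activation values derive from mass-spectrometric measurement of NAD-dependent deacetylation product after a 25 min reaction of bacterially expressed His-tagged SIRT1 with a fluorophore-labelled Trp peptide.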

SMILES	TRP Activity (EC1.5)	TRP MAX RESP (percent maximum fold activation)
Cc1ccc(NC(=O)N2c3nc(-c4ccnc(C)c4)ccc3N3CC[C@H]2C3)cn1 [Example 178, (4S)-N-(6-methylpyridin-3-yl)-7-(2-methylpyridin-4-yl)-3,4-dihydro-1,4-methanopyrido[2,3-b][1,4]diazepine-5(2H)-carboxamide]	B (EC1.5 1-25 μM)	A (Fold activation ≧150%)
CN(C)c1cc(-c2ccc3c(n2)N(C(=O)Nc2cnccn2)[C@H]2CCN3C2)ccn1 [Example 179, (4S)-7-(2-(dimethylamino)pyridin-4-yl)-N-(pyrazin-2-yl)-3,4-dihydro-1,4-methanopyrido[2,3-b][1,4]diazepine-5(2H)-carboxamide]	B (EC1.5 1-25 μM)	A (Fold activation ≧150%)
O=C(Nc1cnccn1)N1c2nc(-c3ccc(C4CC4)nc3)ccc2N2CC[C@H]1C2 [Example 180, (4S)-7-(6-cyclopropylpyridin-3-yl)-N-(pyrazin-2-yl)-3,4-dihydro-1,4-methanopyrido[2,3-b][1,4]diazepine-5(2H)-carboxamide]	B (EC1.5 1-25 μM)	A (Fold activation ≧150%)
O=C(Nc1cnccn1)N1c2nc(N3CCCCC3)ccc2N2CC[C@H]1C2 [Example 181, (4S)-7-(piperidin-1-yl)-N-(pyrazin-2-yl)-3,4-dihydro-1,4-methanopyrido[2,3-b][1,4]diazepine-5(2H)-carboxamide]	B (EC1.5 1-25 μM)	A (Fold activation ≧150%)
Cc1cc(-c2ccc3c(n2)N(C(=O)Nc2ccn(C)n2)[C@H]2CCN3C2)ccn1 [Example 182, (4S)-N-(1-methyl-1H-pyrazol-3-yl)-7-(2-methylpyridin-4-yl)-3,4-dihydro-1,4-methanopyrido[2,3-b][1,4]diazepine-5(2H)-carboxamide]	B (EC1.5 1-25 μM)	A (Fold activation ≧150%)
Cc1cc(-c2ccc3c(n2)N(C(=O)NC2CCC2)[C@H]2CCN3C2)ccn1 [Example 183, (4S)-N-cyclobutyl-7-(2-methylpyridin-4-yl)-3,4-dihydro-1,4-methanopyrido[2,3-b][1,4]diazepine-5(2H)-carboxamide]	B (EC1.5 1-25 μM)	A (Fold activation ≧150%)
Cc1cc(-c2ccc3c(n2)N(C(=O)NCc2ccccn2)[C@H]2CCN3C2)ccn1 [Example 186, (4S)-7-(2-methylpyridin-4-yl)-N-(pyridin-2-ylmethyl)-3,4-dihydro-1,4-methanopyrido[2,3-b][1,4]diazepine-5(2H)-carboxamide]	C (EC1.5>25 μM)	B (Fold Activation <150%)
Cc1cc(-c2ccc3c(n2)N(C(=O)Nc2cnncn2)[C@H]2CCN3C2)ccn1 [Example 187, (4S)-7-(2-methylpyridin-4-yl)-N-(1,2,4-triazin-5-yl)-3,4-dihydro-1,4-methanopyrido[2,3-b][1,4]diazepine-5(2H)-carboxamide]	C (EC1.5>25 μM)	B (Fold Activation <150%)
Cc1cc(-c2ccc3c(n2)N(C(=O)Nc2ccc4[nH]cnc4n2)[C@H]2CCN3C2)ccn1 [Example 189, (4S)-N-(1H-imidazo[4,5-b]pyridin-5-yl)-7-(2-methylpyridin-4-yl)-3,4-dihydro-1,4-methanopyrido[2,3-b][1,4]diazepine-5(2H)-carboxamide]	B (EC1.5 1-25 μM)	A (Fold activation ≧150%)
Cc1cc(-c2ccc3c(n2)N(C(=O)Nc2cncc(F)n2)[C@H]2CCN3C2)ccn1 [Example 190, (4S)-N-(6-fluoropyrazin-2-yl)-7-(2-methylpyridin-4-yl)-3,4-dihydro-1,4-methanopyrido[2,3-b][1,4]diazepine-5(2H)-carboxamide]	A (EC1.5<1 μM)	A (Fold activation ≧150%)
O=C(Nc1cnccn1)N1c2nc(N3CCC(C(F)(F)F)CC3)ccc2N2CC[C@H]1C2 [Example 191, (4S)-N-(pyrazin-2-yl)-7-(4-(trifluoromethyl)piperidin-1-yl)-3,4-dihydro-1,4-methanopyrido[2,3-b][1,4]diazepine-5(2H)-carboxamide]	A (EC1.5<1 μM)	A (Fold activation ≧150%)
Cc1cncc(NC(=O)N2c3nc(-c4ccnc(C)c4)ccc3N3CC[C@H]2C3)c1 [Example 194, (4S)-N-(5-methylpyridin-3-yl)-7-(2-methylpyridin-4-yl)-3,4-dihydro-1,4-methanopyrido[2,3-b][1,4]diazepine-5(2H)-carboxamide]	B (EC1.5 1-25 μM)	A (Fold activation ≧150%)
Cc1cc(-c2ccc3c(n2)N(C(=O)Nc2ccc4c(c2)OCO4)[C@H]2CCN3C2)ccn1 [Example 195, (4S)-N-(benzo[d][1,3]dioxol-5-yl)-7-(2-methylpyridin-4-yl)-3,4-dihydro-1,4-methanopyrido[2,3-b][1,4]diazepine-5(2H)-carboxamide]	A (EC1.5<1 μM)	A (Fold activation ≧150%)
Cc1cc(-c2ccc3c(n2)N(C(=O)NCCc2ccccn2)[C@H]2CCN3C2)ccn1.Cl [Example 196, (4S)-7-(2-methylpyridin-4-yl)-N-(2-(pyridin-2-yl)ethyl)-3,4-dihydro-1,4-methanopyrido[2,3-b][1,4]diazepine-5(2H)-carboxamide hydrochloride]	C (EC1.5>25 μM)	B (Fold Activation <150%)
O=C(Nc1cnccn1)N1c2nc(N3CCNCC3)ccc2N2CC[C@H]1C2 [Example 197, (4S)-7-(piperazin-1-yl)-N-(pyrazin-2-yl)-3,4-dihydro-1,4-methanopyrido[2,3-b][1,4]diazepine-5(2H)-carboxamide]	C (EC1.5>25 μM)	B (Fold Activation <150%)
CC1CCN(c2ccc3c(n2)N(C(=O)Nc2cnccn2)[C@H]2CCN3C2)CC1 [Example 198, (4S)-7-(4-methylpiperidin-1-yl)-N-(pyrazin-2-yl)-3,4-dihydro-1,4-methanopyrido[2,3-b][1,4]diazepine-5(2H)-carboxamide]	B (EC1.5 1-25 μM)	A (Fold activation ≧150%)
CCn1cc(-c2nc3c(cc2Cl)N2CC[C@@H](C2)N3C(=O)Nc2ccnc(OC[C@@H](O)CO)c2)cn1 [Example 199, (4S)-8-chloro-N-(2-((S)-2,3-dihydroxypropoxy)pyridin-4-yl)-7-(1-ethyl-1H-pyrazol-4-yl)-3,4-dihydro-1,4-methanopyrido[2,3-b][1,4]diazepine-5(2H)-carboxamide]	B (EC1.5 1-25 μM)	A (Fold activation ≧150%)
Cc1ccc(-c2ccc3c(n2)N(C(=O)Nc2cnccn2)[C@H]2CCN3C2)c(C)n1 [Example 200, (4S)-7-(2,6-dimethylpyridin-3-yl)-N-(pyrazin-2-yl)-3,4-dihydro-1,4-methanopyrido[2,3-b][1,4]diazepine-5(2H)-carboxamide]	B (EC1.5 1-25 μM)	A (Fold activation ≧150%)
